Converted amounts (≈) assume the structure as drawn. Read-outs that look alike come from different tables or passages of the source. A value given as a limit tells only on which side of the number the result lay.

The data set can be described thus: Approximate solubility by solvent addition. It is filed as physicochemical. The method, then:
Solubilities are calculated based on the total solvent used to give a solution; actual solubilities may be greater because of the volume of the solvent portions used or a slow rate of dissolution. Values are rounded to the nearest whole number.
Solubilities are calculated based on the total solvent used to give a solution; actual solubilities may be greater because of the volume of the solvent portions used or a slow rate of dissolution. Values are rounded to the nearest whole number. […] If dissolution occurred as determined by the visual assessment after the addition of the first aliquot, the value is reported as “>”.

The solubility is the dissolved amount per volume that the medium holds. On to `COc1cc(C(C)C)c(Oc2cnc(N)nc2N)cc1S(N)(=O)=O` [Compound A Free Base Form A, 5-(2,4-diamino-pyrimidin-5-yloxy)-4-isopropyl-2-methoxy-benzenesulfonamide], for which the solubility is less than 1000 µg/mL (aqueous with cosolvent or surfactant or cyclodextrin, thermodynamic from solid, solvent acetone/water 50:50 (v/v), read-out: Solubility); 1000 µg/mL (≈ 2830 µM) (organic solvent or mixture, thermodynamic from solid, solvent ACN/water 90:10 (v/v), read-out: Solubility); less than 2000 µg/mL (organic solvent or mixture, thermodynamic from solid, solvent ACN, read-out: Solubility); 20000 µg/mL (≈ 56600 µM) (organic solvent or mixture, thermodynamic from solid, solvent DMSO, read-out: Solubility); less than 1000 µg/mL (organic solvent or mixture, thermodynamic from solid, solvent EtOAc, read-out: Solubility); less than 1000 µg/mL (organic solvent or mixture, thermodynamic from solid, solvent EtOH, read-out: Solubility). Besides, the solubility is 1000 µg/mL (≈ 2830 µM) (organic solvent or mixture, thermodynamic from solid, solvent MeOH, read-out: Solubility); 2000 µg/mL (≈ 5660 µM) (organic solvent or mixture, thermodynamic from solid, solvent TFE, read-out: Solubility); less than 1000 µg/mL (organic solvent or mixture, thermodynamic from solid, solvent acetone, read-out: Solubility); less than 1000 µg/mL (solvent water, ambient temperature); less than 1000 µg/mL (thermodynamic from solid, solvent water, ambient temperature, read-out: Solubility).

The values above are taken from patent US11230533B2, “Crystalline salts and polymorphs of a P2X3 antagonist” (Afferent Pharmaceuticals, Inc., priority 2016, dated 2022).
